Organism: Rattus norvegicus
Test: Open TG-GATES - Regimen: Daily Repeat
Format: toxicity, organism-based, Sprague-Dawley
Set-up: regimen Daily Repeat, gender Male, age 6 weeks
Conditions: in vivo, po, 30 mg/kg, route gavage, dose level Low; for APTT / Bas / Eos / Fbg / Hb / Ht / Lym / MCH / MCHC / MCV / Mono / Neu / PT / Plat / RBC / Ret / WBC: tissue Blood; for KIDNEY_L / KIDNEY_R / KIDNEY_TOTAL: tissue Kidney; for LIVER: tissue Liver; for A/G / ALP / ALT / AST / BUN / CRE / Ca / Cl / DBIL / GLC / IP / K / LDH / Na / PL / RALB / TBIL / TC / TG / TP / gamma-GTP: tissue Plasma

Structure (SMILES): CCOC(=O)C(C)(C)Oc1ccc(Cl)cc1 [CLOFIBRATE]
- TERMINAL_BW (72 h, time 3 day): 242 g
- APTT (72 h, time 3 day): 20.9 s
- Bas (72 h, time 3 day): 0%
- Eos (72 h, time 3 day): 1%
- Fbg (72 h, time 3 day): 226 mg/dL
- Hb (72 h, time 3 day): 13.3 g/dL
- Ht (72 h, time 3 day): 38%
- Lym (72 h, time 3 day): 80.8%
- MCH (72 h, time 3 day): 21.4 pg
- MCHC (72 h, time 3 day): 35%
- MCV (72 h, time 3 day): 61.1 fL
- Mono (72 h, time 3 day): 3.2%
- Neu (72 h, time 3 day): 15%
- PT (72 h, time 3 day): 12.5 s
- Plat (72 h, time 3 day): 131.1 x10_4/uL
- RBC (72 h, time 3 day): 622.4 x10_4/ul
- Ret (72 h, time 3 day): 5%
- WBC (72 h, time 3 day): 108.6 x10_2/uL
- KIDNEY_L (72 h, time 3 day): 1 g
- KIDNEY_R (72 h, time 3 day): 1 g
- KIDNEY_TOTAL (72 h, time 3 day): 2.1 g
- LIVER (72 h, time 3 day): 12 g
- A/G (72 h, time 3 day): 1.6
- ALP (72 h, time 3 day): 1135 IU/L
- ALT (72 h, time 3 day): 42.4 IU/L
- AST (72 h, time 3 day): 72.2 IU/L
- BUN (72 h, time 3 day): 14.8 mg/dL
- CRE (72 h, time 3 day): 0.4 mg/dL
- Ca (72 h, time 3 day): 10.9 mg/dL
- Cl (72 h, time 3 day): 102 meq/L
- DBIL (72 h, time 3 day): 0.098 mg/dL
- GLC (72 h, time 3 day): 200.8 mg/dL
- IP (72 h, time 3 day): 6.3 mg/dL
- K (72 h, time 3 day): 4 meq/L
- LDH (72 h, time 3 day): 265.2 IU/L
- Na (72 h, time 3 day): 140.2 meq/L
- PL (72 h, time 3 day): 141 mg/dL
- RALB (72 h, time 3 day): 3.4 g/dL
- TBIL (72 h, time 3 day): 0.1 mg/dL
- TC (72 h, time 3 day): 67.6 mg/dL
- TG (72 h, time 3 day): 112.2 mg/dL
- TP (72 h, time 3 day): 5.6 g/dL
- gamma-GTP (72 h, time 3 day): 0.6 IU/L
- TERMINAL_BW ([…], time 7 day): 265.8 g
- TERMINAL_BW ([…], time 14 day): 333.8 g
- TERMINAL_BW ([…], time 28 day): 411.4 g
- APTT ([…], time 7 day): 20.2 s
- Bas ([…], time 7 day): 0%
- Eos ([…], time 7 day): 0.8%
- Fbg ([…], time 7 day): 223.4 mg/dL
- Hb ([…], time 7 day): 14.1 g/dL
- Ht ([…], time 7 day): 39.7%
- Lym ([…], time 7 day): 82%
- MCH ([…], time 7 day): 21.9 pg
- MCHC ([…], time 7 day): 35.5%
- MCV ([…], time 7 day): 61.6 fL
- Mono ([…], time 7 day): 2.6%
- Neu ([…], time 7 day): 14.2%
- PT ([…], time 7 day): 12 s
- Plat ([…], time 7 day): 124.1 x10_4/uL
- RBC ([…], time 7 day): 643.8 x10_4/ul
- Ret ([…], time 7 day): 4.4%
- WBC ([…], time 7 day): 88.1 x10_2/uL
- APTT ([…], time 14 day): 20.1 s
- Bas ([…], time 14 day): 0%
- Eos ([…], time 14 day): 1%
- Fbg ([…], time 14 day): 219.4 mg/dL
- Hb ([…], time 14 day): 13.9 g/dL
- Ht ([…], time 14 day): 40.8%
- Lym ([…], time 14 day): 78.4%
- MCH ([…], time 14 day): 20 pg
- MCHC ([…], time 14 day): 34%
- MCV ([…], time 14 day): 58.9 fL
- Mono ([…], time 14 day): 3.2%
- Neu ([…], time 14 day): 17.2%
- PT ([…], time 14 day): 12.3 s
- Plat ([…], time 14 day): 131 x10_4/uL
- RBC ([…], time 14 day): 694.6 x10_4/ul
- Ret ([…], time 14 day): 4.8%
- WBC ([…], time 14 day): 146.7 x10_2/uL
- APTT ([…], time 28 day): 20.8 s
- Bas ([…], time 28 day): 0%
- Eos ([…], time 28 day): 1%
- Fbg ([…], time 28 day): 222 mg/dL
- Hb ([…], time 28 day): 14.8 g/dL
- Ht ([…], time 28 day): 42.7%
- Lym ([…], time 28 day): 81.8%
- MCH ([…], time 28 day): 18.5 pg
- MCHC ([…], time 28 day): 34.7%
- MCV ([…], time 28 day): 53.4 fL
- Mono ([…], time 28 day): 2.6%
- Neu ([…], time 28 day): 14.2%
- PT ([…], time 28 day): 12.4 s
- Plat ([…], time 28 day): 119.1 x10_4/uL
- RBC ([…], time 28 day): 800 x10_4/ul
- Ret ([…], time 28 day): 2.2%
- WBC ([…], time 28 day): 140.9 x10_2/uL
- KIDNEY_L ([…], time 7 day): 1.1 g
- KIDNEY_R ([…], time 7 day): 1.1 g
- KIDNEY_TOTAL ([…], time 7 day): 2.2 g
- KIDNEY_L ([…], time 14 day): 1.3 g
- KIDNEY_R ([…], time 14 day): 1.3 g
- KIDNEY_TOTAL ([…], time 14 day): 2.6 g
- KIDNEY_L ([…], time 28 day): 1.5 g
- KIDNEY_R ([…], time 28 day): 1.5 g
- KIDNEY_TOTAL ([…], time 28 day): 3 g
- LIVER ([…], time 7 day): 12.4 g
- LIVER ([…], time 14 day): 16 g
- LIVER ([…], time 28 day): 16.9 g
- A/G ([…], time 7 day): 1.6
- ALP ([…], time 7 day): 883.2 IU/L
- ALT ([…], time 7 day): 35.8 IU/L
- AST ([…], time 7 day): 72 IU/L
- BUN ([…], time 7 day): 16 mg/dL
- CRE ([…], time 7 day): 0.4 mg/dL
- Ca ([…], time 7 day): 10.4 mg/dL
- Cl ([…], time 7 day): 103.2 meq/L
- DBIL ([…], time 7 day): 0.07 mg/dL
- GLC ([…], time 7 day): 213 mg/dL
- IP ([…], time 7 day): 6.8 mg/dL
- K ([…], time 7 day): 3.5 meq/L
- LDH ([…], time 7 day): 245 IU/L
- Na ([…], time 7 day): 141.4 meq/L
- PL ([…], time 7 day): 127 mg/dL
- RALB ([…], time 7 day): 3.6 g/dL
- TBIL ([…], time 7 day): 0.1 mg/dL
- TC ([…], time 7 day): 60 mg/dL
- TG ([…], time 7 day): 96 mg/dL
- TP ([…], time 7 day): 5.8 g/dL
- gamma-GTP ([…], time 7 day): 0.8 IU/L
- A/G ([…], time 14 day): 1.4
- ALP ([…], time 14 day): 845.6 IU/L
- ALT ([…], time 14 day): 32.4 IU/L
- AST ([…], time 14 day): 56.8 IU/L
- BUN ([…], time 14 day): 16.4 mg/dL
- CRE ([…], time 14 day): 0.4 mg/dL
- Ca ([…], time 14 day): 10.4 mg/dL
- Cl ([…], time 14 day): 101.4 meq/L
- DBIL ([…], time 14 day): 0.088 mg/dL
- GLC ([…], time 14 day): 229.8 mg/dL
- IP ([…], time 14 day): 7 mg/dL
- K ([…], time 14 day): 4 meq/L
- LDH ([…], time 14 day): 183.4 IU/L
- Na ([…], time 14 day): 140.2 meq/L
- PL ([…], time 14 day): 145.6 mg/dL
- RALB ([…], time 14 day): 3.4 g/dL
- TBIL ([…], time 14 day): 0.1 mg/dL
- TC ([…], time 14 day): 64.8 mg/dL
- TG ([…], time 14 day): 135 mg/dL
- TP ([…], time 14 day): 5.8 g/dL
- gamma-GTP ([…], time 14 day): 0.8 IU/L
- A/G ([…], time 28 day): 1.4
- ALP ([…], time 28 day): 741.4 IU/L
- ALT ([…], time 28 day): 41 IU/L
- AST ([…], time 28 day): 68.4 IU/L
- BUN ([…], time 28 day): 14.6 mg/dL
- CRE ([…], time 28 day): 0.4 mg/dL
- Ca ([…], time 28 day): 10.3 mg/dL
- Cl ([…], time 28 day): 102.2 meq/L
- DBIL ([…], time 28 day): 0.084 mg/dL
- GLC ([…], time 28 day): 207.8 mg/dL
- IP ([…], time 28 day): 6.1 mg/dL
- K ([…], time 28 day): 3.9 meq/L
- LDH ([…], time 28 day): 165.8 IU/L
- Na ([…], time 28 day): 140.4 meq/L
- PL ([…], time 28 day): 134 mg/dL
- RALB ([…], time 28 day): 3.4 g/dL
- TBIL ([…], time 28 day): 0.1 mg/dL
- TC ([…], time 28 day): 61.6 mg/dL
- TG ([…], time 28 day): 121.6 mg/dL
- TP ([…], time 28 day): 5.9 g/dL
- gamma-GTP ([…], time 28 day): 0.8 IU/L
